We go through 5 molecules from paper PMC6753678, “Fueling Open Innovation for Malaria Transmission-Blocking Drugs: Hundreds of Molecules Targeting Early Parasite Mosquito Stages” (Frontiers in Microbiology, 2019).

Read-outs that look alike come from different tables or passages of the source.

The subject of data set [1] is P. falciparum female gametocytes. On the set-up: method as in Miguel-Blanco et al 2017. As to conditions: ref Miguel-Blanco et al 2017, read-out: Pf FGAA IC50, cited from earlier work.
In data set [2] the test system is HepG2 cells. As to conditions: cited from earlier work.
Data set [3] concerns HepG2 cells. Put plainly: HepG2 cytotoxicity assay. As to conditions: for IC50: read-out: HepG2 cytotoxicity assay IC50, dose response confirmation; for HepG2 cytoxicity: value reported with the Pb ODA screen. Summed up: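 HepG2 cells, 2,500 per well in MEM with 10% FBS and 1% NEAA, exposed to compounds for 48 h at 37°C, 5% CO2. Viability read by fluorescence; percent inhibition relative to 50 μM doxorubicin and DMSO controls.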

In data set [4] the test system is 3D7-strain P. falciparum asexual parasites. Put plainly: P. falciparum asexual growth inhibition assay (Pf GIA). The format is cell-based, Plasmodium falciparum. Summed up: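 Parasites at 0.25% parasitemia, 2% hematocrit in Albumax-supplemented RPMI were exposed to compounds in dose response for 72 h at 37°C under 5% CO2/5% O2. Viability was read as LDH activity (NBT/diaphorase, A650 after freeze-thaw). Percent inhibition was calculated against chloroquine and DMSO controls, mean of three biological replicates.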

Data set [5] deals with P. berghei ookinete development. As to conditions: for % inhibition, Replicate A / % inhibition, Replicate B: primary screen at 1 μM.
The test system of data set [6] is P. falciparum late stage (stages IV-V) gametocytes. Put plainly: P. falciparum late stage gametocyte ATP depletion assay (Pf GC-ATP). As to conditions: 1: YES; 0: NO.
The test system is the same in data set [7]. On the set-up: method as in Almela et al 2016. As to conditions: ref Almela et al 2016, read-out: Pf GCT ATP IC50, cited from earlier work.
In data set [8] the test system is P. falciparum female gametocytes. Put plainly: P. falciparum female gametogenesis assay (Pf FGAA). As to conditions: 1: YES; 0: NO.
Data set [9] concerns P. berghei ookinete development. Put plainly: microbe, parasite or virus in culture. As to conditions: Plasmodium berghei.
Setting [10] is: value reported with the Pf FGAA screen, ref Miguel-Blanco et al 2017.
[11] abbreviates: value reported with the Pf GCT ATP screen, ref Almela et al 2016.
Setting [12] is: HepG2 cytotoxicity unified across the three screens.
Setting [13] is: dose response confirmation, read-out: Pf asexual growth inhibition assays IC50.
[14] abbreviates: read-out: Pb ODA IC50, this manuscript.
The mark [15] stands for this setting: read-out: Pb Ookinete development assay IC50, dose response confirmation.

By IC50 is commonly meant the concentration at which inhibition is half-maximal. `Cc1occc1C(=O)Nc1nc(-c2ccccn2)nc2ccsc12` [TCMDC-135244]: the IC50 in data set [1] (TCAMS screen comparison) is 60 nM; in the data set on HepG2 cells [3], 870 nM; in data set [4] (setting [13]), 656 nM; in data set [5] (setting [14]) it was 1340 nM; in data set [5] (setting [15]), 1340 nM; in [7] (TCAMS screen comparison), 300 nM. For the same molecule, the “HepG2 cytoxicity” value was above 100 µM with HepG2 cells [2] (setting [10]) and below 1.56 µM with HepG2 cells [2] (setting [11]). For the same molecule, in the data set with HepG2 cells [3] (setting [12]), the “Unified cytotox” value is on record as 0.87 µM. Besides, the “Is compound selective in assay? Pb ODA active?” value in data set [5] (1: YES, 0: NO) was 0 (0: NO). The “% inhibition, Replicate A” value in [5] was found to be 79.17%. In addition, in [5], the “% inhibition, Replicate B” value stood at 64.59%. In addition, the “Is compound selective in assay? Pf GC-ATP active?” value in [6] is recorded as 0 (0: NO). Moreover, the “Is compound selective in assay? Pf FGAA active?” value in data set [8] is given as 1 (1: YES).

Broadly, the inhibition is the change of the read-out against control, counted positive when it falls. Take `C[C@@H]1C[C@@H]([C@H](O)CC2CC(=O)NC(=O)C2)C(=O)[C@@H](C)C1` [TCMDC-125838]: the IC50 turned out to be 100000 nM in the data set on HepG2 cells [3]; 596 nM in data set [4] (Plasmodium falciparum, 3D7, read-out: Pf asexual growth inhibition assays IC50); 0.11 µM in data set [9] (read-out: Pb ODA IC50 (µM)); 0.109 µM in data set [9] (read-out: Pb Ookinete development assay IC50). Moreover, the “Unified cytotox” value in the data set on HepG2 cells [3] (unified HepG2 value across the three screens) was 100.00 µM. Moreover, the inhibition at 1 µM stood at 110% in data set [9] (read-out: % inhibition, Replicate A) and 117% in [9] (read-out: % inhibition, Replicate B). Besides, the “Is compound selective in assay? Pb ODA active?” value in data set [5] is listed as 1 (key: 1: YES; 0: NO).

`Cl.c1ccc2c(NCCCCCCCCCNc3c4ccccc4nc4ccccc34)c3ccccc3nc2c1` [TCMDC-124286]: the IC50 was 1800 nM in data set [1]; 5500 nM in the data set on HepG2 cells [3]; 349 nM in [4] (setting [13]); 2030 nM in data set [5] (setting [14]); 2030 nM in data set [5] (setting [15]); 1500 nM in data set [7]. For the same molecule, in the data set with HepG2 cells [2] (HepG2, ref Almela et al 2016), the “HepG2 cytoxicity (Pf GCT ATP screen)” value is on record as 6.1 µM. For the same molecule, the “HepG2 cytoxicity (Pf FGAA screen)” value with HepG2 cells [2] (HepG2, ref Miguel-Blanco et al 2017) is recorded as 4.90 µM. Also, the “HepG2 cytoxicity (Pb ODA, this manuscript)” value in the data set with HepG2 cells [3] (HepG2, this manuscript) was 5.50 µM. The molecule further returned a Unified cytotox with HepG2 cells [3] (HepG2 values of the three screens unified) of 5.50 µM. For the same molecule, the “Is compound selective in assay? Pb ODA active?” value in data set [5] (1: YES, 0: NO) is 0 (0: NO). Moreover, the “% inhibition, Replicate A” value in [5] was 34.80%. In addition, in data set [5], the “% inhibition, Replicate B” value was 55.23%. The “Is compound selective in assay? Pf GC-ATP active?” value in data set [6] is recorded as 0 (0: NO). In addition, the “Is compound selective in assay? Pf FGAA active?” value in [8] is recorded as 0 (0: NO).

Consider `C=CCC1OC(=O)c2cc(OC)cc(OC)c21` (stereo not shown) [TCMDC-138677], for which the IC50 in data set [1] (TCAMS screen comparison) was 360 nM; with HepG2 cells [3], 2570 nM; in data set [4] (setting [13]) it was 447 nM; in [5] (setting [14]), 2360 nM; in data set [5] (setting [15]), 2360 nM; in data set [7] (TCAMS screen comparison), 600 nM. The “HepG2 cytoxicity” value in the data set on HepG2 cells [2] (setting [10]) is 2.29 µM; in the data set on HepG2 cells [2] (setting [11]), below 1.56 µM; in the data set with HepG2 cells [3] (this manuscript), 2.57 µM. In addition, the “Unified cytotox” value in the data set with HepG2 cells [3] (setting [12]) is 2.43 µM. Moreover, in data set [5] (1: YES, 0: NO), the “Is compound selective in assay? Pb ODA active?” value was 0 (0: NO). Moreover, the “% inhibition, Replicate A” value in data set [5] came to 53.73%. For the same molecule, in data set [5], the “% inhibition, Replicate B” value amounted to 47.60%. For the same molecule, the “Is compound selective in assay? Pf GC-ATP active?” value in [6] was 0 (0: NO). Besides, the “Is compound selective in assay? Pf FGAA active?” value in data set [8] is recorded as 0 (0: NO).

As to `ON=C1CCc2cc(-c3cc(-c4ccc(OC5CCNCC5)cc4)oc3-c3ccncc3)ccc21` [TCMDC-141381], the IC50 in data set [1] (TCAMS screen comparison) was 200 nM; in the data set on HepG2 cells [3], 5250 nM; in data set [4] (setting [13]), 123 nM; in data set [5] (setting [14]), 1410 nM; in [5] (setting [15]), 1410 nM; in data set [7] (TCAMS screen comparison), 270 nM. Also, the “HepG2 cytoxicity” value was 5.01 µM in the data set on HepG2 cells [2] (setting [10]), 7.5 µM with HepG2 cells [2] (setting [11]) and 5.25 µM in the data set on HepG2 cells [3] (this manuscript). Besides, in the data set on HepG2 cells [3] (setting [12]), the “Unified cytotox” value stood at 5.92 µM. Further, the “Is compound selective in assay? Pb ODA active?” value in [5] (1: YES, 0: NO) is 0 (0: NO). Besides, the “% inhibition, Replicate A” value in data set [5] came to 75.99%. Also, the “% inhibition, Replicate B” value in data set [5] worked out at 61.54%. For the same molecule, the “Is compound selective in assay? Pf GC-ATP active?” value in data set [6] is 1 (1: YES). The “Is compound selective in assay? Pf FGAA active?” value in data set [8] is 1 (1: YES).
